Experimental data published in PMC9835529, “Investigation of Novel Quinoline–Thiazole Derivatives as Antimicrobial Agents: In Vitro and In Silico Approaches” (ACS Omega, 2022).
In brackets after ≈: the same amount, converted by molar mass.

Experiments:
[1] = molecular target: T1, Lanosterol 14α-demethylase (LMD, CYP51A1) (Candida glabrata, UniProt P50859); experiment: LDM (CYP51A1) inhibition by LC-MS-MS quantification of ergosterol level; assay type: cell-based; conditions: C. glabrata; for inhibition at 0.06 µg/mL: 0.06 μg/mL; for inhibition at 0.06 µg/mL / inhibition at 0.24 µg/mL / inhibition at 0.98 µg/mL: read-out: CYP51A1 Inhibition%; for inhibition at 0.24 µg/mL: 0.24 μg/mL; for inhibition at 0.98 µg/mL: 0.98 μg/mL
T1 construct: tested against Candida strains via the determination of ergosterol production; endogenous in cells; host or cells: C. glabrata (ATCC 90030)
T1 sequence (P50859 whole entry): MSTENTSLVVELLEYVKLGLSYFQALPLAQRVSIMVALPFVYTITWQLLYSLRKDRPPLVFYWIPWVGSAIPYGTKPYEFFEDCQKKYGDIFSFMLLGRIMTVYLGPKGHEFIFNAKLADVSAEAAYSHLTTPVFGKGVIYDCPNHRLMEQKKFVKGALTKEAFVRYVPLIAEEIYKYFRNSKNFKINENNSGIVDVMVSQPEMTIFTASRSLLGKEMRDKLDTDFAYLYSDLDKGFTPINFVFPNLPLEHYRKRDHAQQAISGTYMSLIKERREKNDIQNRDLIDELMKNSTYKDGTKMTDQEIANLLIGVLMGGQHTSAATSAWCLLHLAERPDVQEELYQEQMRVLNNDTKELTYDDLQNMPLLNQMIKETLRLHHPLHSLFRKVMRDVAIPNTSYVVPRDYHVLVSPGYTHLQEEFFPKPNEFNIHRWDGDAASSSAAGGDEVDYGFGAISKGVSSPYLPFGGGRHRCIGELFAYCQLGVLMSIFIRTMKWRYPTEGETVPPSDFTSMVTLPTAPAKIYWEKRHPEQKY
Description: (§1) The activity of the target compounds was tested against Candida strains via the determination of ergosterol production.
(§2) Ergosterol level was determined using the extract of total sterols from C. albicans (and its other species) following the method described by Breivik and Owades.[63] Quantification of the ergosterol level in this extract was carried out by the recently described method.[58],[64]−[66] According to these described studies, in the current work, compounds 4b, 4e, 4f, and 4h–m were undertaken to investigate their action mechanism. Thus, the LC-MS-MS-based method that quantifies the ergosterol level was applied. […]. Ergosterol quantity in negative control samples was regarded as 100%. All concentrations were analyzed in quadruplicate, and the results were expressed as mean ± standard deviation (SD).

C. glabrata ATCC 90030 = experiment: Anticandidal broth microdilution (EUCAST EDef 7.1), MIC90; assay type: cell-based, Candida glabrata; conditions: Nakaseomyces glabratus, ATCC90030, C. glabrata ATCC 90030
Excerpt: (§3) E. coli (ATCC 35218), E. coli (ATCC 25922), S. aureus (ATCC 6538), methicillin-resistant S. aureus (MRSA) (clinical isolate), S. typhimurium (ATCC 13311), and K. pneumoniae (NCTC 9633) cells for antibacterial effect, and C. albicans (ATCC 24433), C. glabrata (ATCC 90030), C. krusei (ATCC 6258), and C. parapsilosis (ATCC 22019) for the antifungal effect of the final compounds were used to determine the MIC90 values. The broth microdilution procedure specified in the M07-A9 document of the Clinical and Laboratory Standards Institute (CLSI) was used for antibacterial study,[55] and the EDef 7.1 document published by EUCAST was used for the antifungal study.[56] For both activity studies, the detailed procedures were explained in previous studies.[57],[58]

[2] = tested on: Escherichia coli ATCC 35218; experiment: Antibacterial broth microdilution (CLSI M07-A9), MIC90; assay type: cell-based; conditions: E. coli ATCC 35218; for MIC90: Escherichia coli, ATCC35218
Excerpt: (§4) The broth microdilution procedure specified in the M07-A9 document of the Clinical and Laboratory Standards Institute (CLSI) was used for antibacterial study,[55] and the EDef 7.1 document published by EUCAST was used for the antifungal study.[56] For both activity studies, the detailed procedures were explained in previous studies.[57],[58]

[3] = tested on: Klebsiella pneumoniae NCTC 9633; experiment: as above; assay type: cell-based; conditions: NCTC9633, K. pneumoniae NCTC 9633
Excerpt: as §4

E. coli ATCC 25922 = experiment: as above; assay type: cell-based; conditions: for MIC90: Escherichia coli, ATCC25922
Excerpt: as §4

[4] = tested on: methicillin-resistant S. aureus (MRSA) (clinical isolate); experiment: as above; assay type: cell-based; conditions: for MIC90: Staphylococcus aureus
Excerpt: as §4

[5] = tested on: Salmonella typhimurium ATCC 13311; experiment: as above; assay type: cell-based; conditions: Salmonella enterica; S. typhimurium ATCC 13311
Excerpt: as §4

[6] = tested on: Staphylococcus aureus ATCC 6538; experiment: as above; assay type: cell-based; conditions: Staphylococcus aureus, ATCC6538; S. aureus ATCC 6538; read-out: MIC90
Excerpt: as §4

NIH/3T3 cells = experiment: Cytotoxicity on NIH/3T3 healthy cell line; assay type: cell-based; conditions: Mus musculus, NIH3T3, 24 h incubation
Description: NIH/3T3 cells were incubated in Dulbecco’s modified Eagle’s medium (DMEM) (Sigma-Aldrich, St. Louis, MO), added with fetal calf serum, penicillin (100 IU/mL), streptomycin ([…]), and 7.5% NaHCO3 at 37 °C in a humidified atmosphere of 95% air and 5% CO2. NIH/3T3 cells were seeded into the 96-well plates at a density of 1 × 10^4 cells. After 24 h of incubating period, the culture media were removed, and test compounds were added. After 24 h of incubation period, colorimetric measurements were performed by a microplate reader (Biotek) at 540 nm. Inhibition % at all concentrations was determined using the formula below, and the IC50 values were calculated from a dose–response curve obtained by plotting the percentage inhibition versus the log concentration with the use of Microsoft Excel 2013.

[7] = tested on: Candida albicans ATCC 24433; experiment: Anticandidal broth microdilution (EUCAST EDef 7.1), MIC90; assay type: cell-based; conditions: Candida albicans, ATCC24433, C. albicans ATCC 24433; read-out: MIC90
Excerpt: as §3

Candida krusei ATCC 6258 = experiment: as above; assay type: cell-based; conditions: Pichia kudriavzevii, ATCC6258, C. krusei ATCC 6258; read-out: MIC90
Excerpt: as §3

[8] = tested on: Candida parapsilosis ATCC 22019; experiment: as above; assay type: cell-based; conditions: Lodderomyces parapsilosis, ATCC22019, C. parapsilosis ATCC 22019; read-out: MIC90
Excerpt: as §3

E. coli DNA gyrase = molecular target: T2, E. coli DNA gyrase (Escherichia coli, UniProt P0AES4+P0AES6); experiment: DNA-gyrase supercoiling inhibition by electrophoresis (TopoGen kit); assay type: biochemical; conditions: relaxed pHOT1 DNA
T2 construct: purchased TopoGen SKU TG2000G-3
T2 sequence (P0AES4 whole entry, one chain of several): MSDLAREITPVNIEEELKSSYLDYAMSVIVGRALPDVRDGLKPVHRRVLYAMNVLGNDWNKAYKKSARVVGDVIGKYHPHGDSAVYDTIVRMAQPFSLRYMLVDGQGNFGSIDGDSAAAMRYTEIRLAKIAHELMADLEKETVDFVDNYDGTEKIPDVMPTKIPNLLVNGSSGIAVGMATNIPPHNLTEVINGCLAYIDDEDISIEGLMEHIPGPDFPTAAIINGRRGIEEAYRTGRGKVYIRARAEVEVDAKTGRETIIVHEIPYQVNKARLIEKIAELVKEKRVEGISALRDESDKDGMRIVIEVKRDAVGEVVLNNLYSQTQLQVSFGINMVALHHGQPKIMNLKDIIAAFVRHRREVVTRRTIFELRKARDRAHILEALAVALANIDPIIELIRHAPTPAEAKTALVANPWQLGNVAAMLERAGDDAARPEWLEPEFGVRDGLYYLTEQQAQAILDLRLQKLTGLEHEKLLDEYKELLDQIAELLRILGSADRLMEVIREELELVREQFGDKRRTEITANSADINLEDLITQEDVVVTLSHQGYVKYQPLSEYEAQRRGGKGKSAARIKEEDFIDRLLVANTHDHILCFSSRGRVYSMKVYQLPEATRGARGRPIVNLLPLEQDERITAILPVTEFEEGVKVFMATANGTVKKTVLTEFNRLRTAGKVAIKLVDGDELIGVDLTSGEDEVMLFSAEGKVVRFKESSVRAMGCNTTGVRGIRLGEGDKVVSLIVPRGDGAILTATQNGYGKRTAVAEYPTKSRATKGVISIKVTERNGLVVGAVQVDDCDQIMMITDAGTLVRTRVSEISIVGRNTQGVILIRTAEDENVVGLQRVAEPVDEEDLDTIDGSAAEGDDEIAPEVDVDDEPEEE
Description: DNA gyrase obtained from E. coli was used to detect the inhibition of the superhelix activity of DNA gyrase. The method was performed according to the kit protocol described by the supplier (SKU TG2000G-3, TopoGen). The detailed procedures were explained in the previous study.[62]

[9] = tested on: Lanosterol 14α-demethylase (LMD, CYP51A1); experiment: LDM (CYP51A1) inhibition by LC-MS-MS quantification of ergosterol level; assay type: cell-based; conditions: C. parapsilosis
Description: as §1, §2

[10] = molecular target: T3, human aromatase enzyme (CYP19A) (Homo sapiens, UniProt P11511); experiment: Aromatase (CYP19A) Inhibitor Screening Kit (Fluorometric); assay type: biochemical
T3 construct: purchased Bio Vision
T3 sequence (P11511 1-503): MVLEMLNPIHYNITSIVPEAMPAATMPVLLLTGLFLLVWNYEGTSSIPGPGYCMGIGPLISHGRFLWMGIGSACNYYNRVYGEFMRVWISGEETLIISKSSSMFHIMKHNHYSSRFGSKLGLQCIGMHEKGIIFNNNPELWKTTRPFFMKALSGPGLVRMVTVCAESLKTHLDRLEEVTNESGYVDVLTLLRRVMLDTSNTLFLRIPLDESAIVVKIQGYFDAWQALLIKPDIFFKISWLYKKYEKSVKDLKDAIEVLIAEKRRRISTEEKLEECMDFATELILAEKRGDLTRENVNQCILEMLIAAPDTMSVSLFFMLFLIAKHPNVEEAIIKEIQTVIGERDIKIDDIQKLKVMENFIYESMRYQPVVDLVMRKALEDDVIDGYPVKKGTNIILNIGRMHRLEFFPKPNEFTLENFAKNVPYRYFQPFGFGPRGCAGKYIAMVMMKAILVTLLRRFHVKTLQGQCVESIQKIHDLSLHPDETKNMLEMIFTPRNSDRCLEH

Compound | melting point [°C] | effect on ergosterol production / LMD enzyme inhibition (in words) [1] | inhibition at 0.06 µg/mL [1] [%] | inhibition at 0.24 µg/mL [1] [%] | inhibition at 0.98 µg/mL [1] [%] | MIC90 (C. glabrata ATCC 90030) [µg/mL] | MIC90 [2] [µg/mL] | MIC90 [3] [µg/mL] | MIC90 (E. coli ATCC 25922) [µg/mL] | MIC90 [4] [µg/mL] | MIC90 [5] [µg/mL] | MIC90 [6] [µg/mL] | IC50 (NIH/3T3 cells) [µM] | MIC90 [7] [µg/mL] | MIC90 (Candida krusei ATCC 6258) [µg/mL] | MIC90 [8] [µg/mL] | also measured
COc1ccc2nc(Cl)c(C=NNc3nc(-c4ccc(Cl)cc4)cs3)cc2c1 [4b] | 195 to 197 | showed their anticandidal activity via LMD enzyme inhibition | 36.2 ± 0.965 | 51.8 ± 1.61 | 60.2 ± 2.1 | < 0.06 | > 1000 | > 1000 | > 1000 | > 1000 | > 1000 | > 1000 | 14.7 ± 0.34 | > 1000 | 31.2 (≈ 72.8 µM) | 31.2 (≈ 72.8 µM) | 
COc1ccc2nc(Cl)c(/C=N/Nc3nc(-c4ccc(C#N)cc4)cs3)cc2c1 [4e] | 240 to 242 | did not decrease the ergosterol production compared to the standard drugs | 16.7 ± 0.774 | 18.3 ± 0.785 | 21.7 ± 0.955 | < 0.06 | > 1000 | > 1000 | > 1000 | > 1000 | > 1000 | > 1000 | > 1000 | 3.91 (≈ 9.31 µM) | 62.5 (≈ 149 µM) | 3.91 (≈ 9.31 µM) | 
COc1ccc(-c2csc(N/N=C/c3cc4cc(OC)ccc4nc3Cl)n2)cc1 [4g] | 176 to 180 |  |  |  |  | 15.6 (≈ 36.8 µM) | 7.81 (≈ 18.4 µM) | > 1000 | 3.91 (≈ 9.2 µM) | 3.91 (≈ 9.2 µM) | > 1000 | 7.81 (≈ 18.4 µM) | 10.4 ± 0.22 | > 1000 | 31.2 (≈ 73.5 µM) | 3.91 (≈ 9.2 µM) | times more effective than chloramphenicol (MIC90) [2]: four times; times more effective than chloramphenicol (MIC90) (E. coli ATCC 25922): four times; times more effective than the standard drug chloramphenicol (MIC90) [4]: 8; DNA-gyrase inhibition (electrophoresis image) (E. coli DNA gyrase): no peak belonging to the supercoiled DNA
COc1cccc(-c2csc(N/N=C/c3cc4cc(OC)ccc4nc3Cl)n2)c1 [4k] | 217 to 220 |  |  |  |  | 1.95 (≈ 4.59 µM) | > 1000 | > 1000 | > 1000 | > 1000 | > 1000 | > 1000 | 12 ± 0.44 | 1.95 (≈ 4.59 µM) | 1.95 (≈ 4.59 µM) | 1.95 (≈ 4.59 µM) | effect on ergosterol production / LMD enzyme inhibition (in words) [9]: did not decrease the ergosterol production compared to the standard drugs; CYP51A1 Inhibition% ([9]; 0.06 μg/mL): 11.449 ± 0.518%; CYP51A1 Inhibition% ([9]; 0.24 μg/mL): 15.662 ± 0.616%; CYP51A1 Inhibition% ([9]; 0.98 μg/mL): 17.437 ± 0.861%; IC50 [10]: 0.038 ± 0.001 µM
